In one data set the test system is Aβ peptides (H4-APPsw). The experiment in a line: Aβ peptide profile in H4-APPsw cultures by MALDI-TOF mass spectrometry and urea gel western blot. It is filed as cell-based, human. Here is the method:
For western blotting of Aβ peptides from H4-APPsw cell cultures, Aβ was immunoprecipitated directly from the cell culture medium and was eluted from the protein G beads by addition of lithium dodecyl sulfate (LDS) electrophoresis sample buffer (Invitrogen). Aβ peptides were separated by gel electrophoresis in the presence of 8 M urea, transferred to PVDF membrane, and detected by western blotting using monoclonal 26D6-HRP conjugate.
H4-APPsw cell cultures were grown in T-75 flasks until 75% confluent and rinsed with Dulbecco's phosphate buffered saline (DPBS; Gibco cat number 14109), and 20 mL of DMEM supplemented with L-glutamine (2 mM), geneticin, penicillin, streptomycin, and DMSO with or without BMS-869780 was added (final concentration of DMSO was 0.2%). After incubation for 24 hours at 37°C in 5% CO2, culture medium was removed, centrifuged to remove cells, and frozen in aliquots at −80°C. For immunoprecipitation, aliquots of cell medium (4 mL) were thawed, followed by the addition of protease inhibitor cocktail (Sigma P-8340) to a final concentration of 1%, 60 ng of [^15N]-Aβ1-40 synthetic peptide (rPeptide, 1101-1, Athens, GA), 30 μg of monoclonal 26D6, and 15 μg of monoclonal 4G8. After incubation for 20 min on ice, 80 μL of protein G agarose beads (Pierce Rockford, IL) was added, and incubation was continued overnight at 4°C. […]
Figure 3 BMS-869780 increased the levels of the shorter peptides Aβ1-38 and Aβ1-37. (a) Top panel: an equimolar mix of synthetic peptides Aβ1-37, Aβ1-38, Aβ1-39, Aβ1-40, [^15N]-Aβ1-40, and Aβ1-42 was evaluated by MALDI-TOF mass spectrometry. H4-APPsw cell cultures were treated with vehicle (0.1% DMSO—middle panel) or BMS-869780 (100 nM—bottom panel), [^15N]-Aβ1-40 was added, and Aβ peptides were immunoprecipitated and evaluated by MALDI-TOF mass spectrometry. […] Aβ peptides were separated by gel electrophoresis in the presence of urea and detected by western blotting. […]
Background: Immunoblotting shows a protein as a band on a membrane.

Data set [1] has as its system duodenum, liver, and kidney. The experiment in a line: Histopathology in rat 4-day oral dosing experiment. It is filed as in vivo. Here is the method:
Determination of IC50 values for inhibition of secreted alkaline phosphatase (SEAP) was carried out using an H4 cell line stably expressing SEAP. Cells were treated overnight with compounds in 384-well format, and SEAP accumulation in the culture media was quantified using a chemiluminescence substrate. The pregnane-X-receptor transactivation assay (PXR-TA) was based on the methods of Goodwin et al. as described previously. In the 4-day rat study with BMS-869780, tissues were fixed in 10% neutral buffered formalin, embedded in paraffin, sectioned, stained with hematoxylin and eosin, and examined by light microscopy.
As a preliminary evaluation of safety in vivo, male and female rats were given 10, 30, and 100 mg/kg BMS-869780 orally once daily for 4 days. Endpoints included brain Aβ1-42, as described above (Figures 7(d) and 7(e)), plasma PK on day 1 and day 3 (Table 4), and histopathology for duodenum, liver, and kidney.

“Also recorded” adds a separate entry of the source.

Consider `COc1cc(Nc2nc3n(n2)CCCC[C@H]3c2ccc(F)cc2)ccc1-n1cnc(Cl)c1` [BMS-869780], for which, in the data set with Aβ peptides (H4-APPsw) (100 nM), the “Aβ1-37 and Aβ1-38 levels by MALDI mass spectrometry” value was “dramatically increased”; the “Aβ1-40 and Aβ1-42 levels by MALDI mass spectrometry” value was “essentially undetectable”. In addition, in the data set with Aβ peptides (H4-APPsw) (100 nM and 10 nM), the “Aβ1-37 and Aβ1-38 levels by western blot” value was “Increased levels”. The “duodenum and kidney histology” value in data set [1] (10, 30 and 100 mg/kg orally once daily for 4 days) is on record as “unchanged at all dose levels”. The liver histology entry in data set [1] (at all doses (10, 30, 100 mg/kg once daily for 4 days)) was “macro- and microvesicular vacuolar degeneration”. Besides, in data set [1] (lipidosis after four daily doses of 10 mg/kg), the “separation of hepatotoxicity from Aβ1-42 lowering exposure benchmarks” value was “no separation of hepatotoxicity”. In addition, the “Notch-related effect in duodenum” value in data set [1] (up to 100 mg/kg once daily for 4 days) is listed as “no Notch-related effect on differentiation in the duodenum; also recorded: did not cause any histological change in duodenum”.

These data come from paper PMC4109680, “Identification and Preclinical Pharmacology of the γ-Secretase Modulator BMS-869780” (International Journal of Alzheimer's Disease, 2014).
